For the assay, the system named is NUGC. Kind of assay: Cytotoxicity against human NUGC cells at 10 uM. The format is functional, cell-based.

SMILES strings stand for the structures. Calls of active or inactive are those of the source. No cut-off for these calls is given here.

Turning to `C#CC(O)/C=C/CCCCCCCCC/C=C\CCCCCCCCC/C=C/C(O)C#C` (configuration not stated), the outcome was Active.

Turning to `C#CC(O)/C=C/CCCCCCCCCCCCC#CCCCCCCCCCCC#CC#CCO` (configuration not stated), the outcome was Active.

These data come from ChEMBL document CHEMBL1154586, “Two new acetylenic derivatives and a new meroditerpenoid from a Taiwanese marine sponge Strongylophora durissima” (J Nat Prod, 2000).
